≈ marks a conversion by molar mass, not a printed value. Numbered stars: 1 amine (or outer) side, 2 acyl side, 3 side chain; on linkers, the order of the positions; unused ones are H or OH. Square brackets hold non-standard residues; d marks the D form. Peptide text beside a SMILES is read from it. Pro(N-(CH2)3Gua,cis-4-NH-) = N=C(N)NCCCN1C[C@@H](N[*:1])C[C@H]1C(=O)[*:2]; Pro(cis-4-guanidino) = NC(N)=N[C@@H]1CN[C@H](C(=O)O)C1; X1 = NCCCN1C[C@@H](N[*:1])C[C@H]1C(=O)[*:2]; Ethylenediamine = C(CN[*:2])N[*:1]; βAla = NCCC(=O)O
Assays:
[1] = Cytotoxicity against human HeLa cells assessed as cell viability at 1 to 10 uM after 24 hrs by MTT assay relative to control; assay type: cell-based; settings: read-out: Activity
Bacillus subtilis = test: Antibacterial activity against Bacillus subtilis NCIM 2079 after 12 hrs by serial dilution method; assay type: functional, organism-based; settings: NCIM 2079, 12 h
Staphylococcus aureus = test: Antibacterial activity against Staphylococcus aureus NCIM 2010 after 12 hrs by serial dilution method; assay type: functional, organism-based; settings: NCIM 2010, 12 h
[2] = tested on: Mycobacterium tuberculosis; test: Antitubercular activity against active stage of Mycobacterium tuberculosis H37Ra ATCC 25177 after 8 days by XRMA; assay type: functional, organism-based; settings: H37Ra ATCC 25177, 192 h
Escherichia coli = test: Antibacterial activity against Escherichia coli NCIM 2688 after 8 hrs by serial dilution method; assay type: functional, organism-based; settings: NCIM 2688, 8 h
Pseudomonas aeruginosa = test: Antibacterial activity against Pseudomonas aeruginosa NCIM 2036 after 8 hrs by serial dilution method; assay type: functional, organism-based; settings: NCIM 2036, 8 h
[3] = tested on: Mycobacterium tuberculosis; test: Antitubercular activity against dormant stage of Mycobacterium tuberculosis H37Ra ATCC 25177 after 12 days by XRMA; assay type: functional, organism-based; settings: H37Ra ATCC 25177, 288 h
[4] = tested on: Staphylococcus epidermidis; test: Antibacterial activity against Staphylococcus epidermidis NCIM 5270 after 12 hrs by serial dilution method; assay type: functional, organism-based; settings: NCIM 5270, 12 h
Enterobacter sp. = test: Antibacterial activity against Enterobacter sp. NCIM 5392 after 8 hrs by serial dilution method; assay type: functional, organism-based; settings: NCIM 5392, 8 h

SMILES | viability at 24 h, up to 10 µM [1] [%] | IC50 (Bacillus subtilis) [nM] | MIC (Bacillus subtilis) [µM] | IC50 (Staphylococcus aureus) [nM] | MIC (Staphylococcus aureus) [µM] | IC50 [2] [nM] | MIC [2] [µM] | IC50 (Escherichia coli) [nM] | MIC (Escherichia coli) [µM] | IC50 (Pseudomonas aeruginosa) [nM] | MIC (Pseudomonas aeruginosa) [µM] | IC50 [3] [nM] | MIC [3] [µM] | IC50 [4] [nM] | MIC [4] [µM] | IC50 (Enterobacter sp.) [nM] | MIC (Enterobacter sp.) [µM]
CC(=O)N[C@@H](Cc1ccccc1)C(=O)NCC(=O)N[C@@H](CCCNC(=N)N)C(=O)N[C@@H](CCCCN)C(=O)N[C@@H](CCCCN)C(=O)N[C@@H](CCCNC(=N)N)C(=O)N[C@@H](CCCNC(=N)N)C(=O)N[C@@H](CCC(N)=O)C(=O)N[C@@H](CCCNC(=N)N)C(=O)N[C@@H](CCCNC(=N)N)C(=O)N1C[C@@H](NC(=N)N)C[C@H]1C(=O)NCCC(N)=O (Ac-FGRKKRRQRR[Pro(cis-4-guanidino)][βAla]-NH2) | ≥ 80 | 149 | 7.96 (≈ 13.2 µg/mL) | 86 | 10.9 (≈ 18.1 µg/mL) | 9700 | 32.1 (≈ 53.1 µg/mL) | 92 | 6.73 (≈ 11.1 µg/mL) | 70 | 10.3 (≈ 17 µg/mL) | 910 | 23.9 (≈ 39.5 µg/mL) |  |  |  | 
CC(=O)N[C@@H](Cc1ccccc1)C(=O)NCC(=O)N[C@H]1C[C@@H](C(=O)N[C@@H](CCCCN)C(=O)N[C@@H](CCCCN)C(=O)N[C@@H](CCCNC(=N)N)C(=O)N[C@H]2C[C@@H](C(=O)N[C@@H](CCC(N)=O)C(=O)N[C@H]3C[C@@H](C(=O)N[C@@H](CCCNC(=N)N)C(=O)N[C@H]4C[C@@H](C(=O)NCCN)N(CCCN)C4)N(CCCN)C3)N(CCCN)C2)N(CCCN)C1 (Ac-FG[X1]KKR[X1]Q[X1]R[X1]-Ethylenediamine) | ≥ 80 | 5.8 | 3.79 (≈ 6.37 µg/mL) | 13.4 | 3.02 (≈ 5.07 µg/mL) | 4920 | 34.4 (≈ 57.8 µg/mL) | 7 | 2.34 (≈ 3.93 µg/mL) | 7 | 2.2 (≈ 3.7 µg/mL) | 1420 | 18.3 (≈ 30.7 µg/mL) | 7 | 3.94 (≈ 6.62 µg/mL) | 11 | 4.51 (≈ 7.58 µg/mL)
NC[C@H]1O[C@H](O[C@H]2[C@H](O)[C@@H](O[C@H]3O[C@H](CO)[C@@H](O)[C@H](N)[C@H]3O)[C@H](N)C[C@@H]2N)[C@H](O)[C@@H](O)[C@@H]1O [KANAMYCIN] |  | 135 | 2.8 (≈ 1.36 µg/mL) | 300 | > 61.9 |  |  | 162 | 3.3 (≈ 1.6 µg/mL) | 49 | 1.01 (≈ 0.489 µg/mL) |  |  |  |  |  | 
CC(=O)N[C@@H](Cc1ccccc1)C(=O)NCC(=O)N[C@H]1C[C@@H](C(=O)N[C@@H](CCCCN)C(=O)N[C@@H](CCCCN)C(=O)N[C@@H](CCCNC(=N)N)C(=O)N[C@H]2C[C@@H](C(=O)N[C@@H](CCC(N)=O)C(=O)N[C@@H](CCCNC(=N)N)C(=O)N[C@@H](CCCNC(=N)N)C(=O)N[C@H]3C[C@@H](C(=O)NCCC(N)=O)N(CCCNC(=N)N)C3)N(CCCNC(=N)N)C2)N(CCCNC(=N)N)C1 (Ac-FG[Pro(N-(CH2)3Gua,cis-4-NH-)]KKR[Pro(N-(CH2)3Gua,cis-4-NH-)]QRR[Pro(N-(CH2)3Gua,cis-4-NH-)][βAla]-NH2) | ≥ 80 | 10.4 | 2.81 (≈ 5.12 µg/mL) | 10.4 | 9.05 (≈ 16.5 µg/mL) | 8400 | 26.1 (≈ 47.5 µg/mL) | 18 | 7.58 (≈ 13.8 µg/mL) | 9.8 | 1.82 (≈ 3.31 µg/mL) | 2200 | 22.8 (≈ 41.5 µg/mL) | 6.5 | 9.44 (≈ 17.2 µg/mL) | 24 | 8.01 (≈ 14.6 µg/mL)
CC(=O)N[C@@H](Cc1ccccc1)C(=O)NCC(=O)N1C[C@@H](NC(=N)N)C[C@H]1C(=O)N[C@@H](CCCCN)C(=O)N[C@@H](CCCCN)C(=O)N[C@@H](CCCNC(=N)N)C(=O)N1C[C@@H](NC(=N)N)C[C@H]1C(=O)N[C@@H](CCC(N)=O)C(=O)N[C@@H](CCCNC(=N)N)C(=O)N[C@@H](CCCNC(=N)N)C(=O)N1C[C@@H](NC(=N)N)C[C@H]1C(=O)NCCC(N)=O (Ac-FG[Pro(cis-4-guanidino)]KKR[Pro(cis-4-guanidino)]QRR[Pro(cis-4-guanidino)][βAla]-NH2) | ≥ 80 | 135 | 13.2 (≈ 21.8 µg/mL) | 227 | 20.5 (≈ 33.9 µg/mL) | 10600 | 36.3 (≈ 59.9 µg/mL) | 105 | 11.8 (≈ 19.5 µg/mL) | 92 | 12.6 (≈ 20.8 µg/mL) | 500 | 21.1 (≈ 34.8 µg/mL) |  |  |  | 
NC(=O)c1cnccn1 [PYRAZINAMIDE] |  |  |  |  |  |  | > 100 |  |  |  |  |  | > 100 |  |  |  | 
CC(=O)N[C@@H](Cc1ccccc1)C(=O)NCC(=O)N[C@H]1C[C@@H](C(=O)N[C@@H](CCCCN)C(=O)N[C@@H](CCCCN)C(=O)N[C@@H](CCCNC(=N)N)C(=O)N[C@H]2C[C@@H](C(=O)N[C@@H](CCC(N)=O)C(=O)N[C@@H](CCCNC(=N)N)C(=O)N[C@@H](CCCNC(=N)N)C(=O)N[C@H]3C[C@@H](C(=O)NCCC(N)=O)N(CCCN)C3)N(CCCN)C2)N(CCCN)C1 (Ac-FG[X1]KKR[X1]QRR[X1][βAla]-NH2) | ≥ 80 | 12.4 | 4.16 (≈ 7.05 µg/mL) | 10.6 | 3.02 (≈ 5.12 µg/mL) | 4500 | 43 (≈ 72.9 µg/mL) | 16.5 | 3.52 (≈ 5.97 µg/mL) | 8.2 | 2.32 (≈ 3.93 µg/mL) | 2240 | 26.3 (≈ 44.6 µg/mL) | 33 | 7.25 (≈ 12.3 µg/mL) | 12.4 | 4.65 (≈ 7.88 µg/mL)
CC(=O)N[C@@H](Cc1ccccc1)C(=O)NCC(=O)N1C[C@@H](NC(=N)N)C[C@H]1C(=O)N[C@@H](CCCCN)C(=O)N[C@@H](CCCCN)C(=O)N[C@@H](CCCNC(=N)N)C(=O)N1C[C@@H](NC(=N)N)C[C@H]1C(=O)N[C@@H](CCC(N)=O)C(=O)N1C[C@@H](NC(=N)N)C[C@H]1C(=O)N[C@@H](CCCNC(=N)N)C(=O)N1C[C@@H](NC(=N)N)C[C@H]1C(=O)NCCC(N)=O (Ac-FG[Pro(cis-4-guanidino)]KKR[Pro(cis-4-guanidino)]Q[Pro(cis-4-guanidino)]R[Pro(cis-4-guanidino)][βAla]-NH2) | ≥ 80 | 143 | 15.1 (≈ 24.9 µg/mL) | 92 | 5.59 (≈ 9.21 µg/mL) | 7440 | 53.9 (≈ 88.8 µg/mL) | 223 | 27.7 (≈ 45.7 µg/mL) | 63 | 26 (≈ 42.8 µg/mL) | 1910 | 29.4 (≈ 48.4 µg/mL) |  |  |  | 
CC1(C)S[C@@H]2[C@H](NC(=O)[C@H](N)c3ccccc3)C(=O)N2[C@H]1C(=O)O [AMPICILLIN] |  | 1000 | 29.5 (≈ 10.3 µg/mL) | 100 | 2.8 (≈ 0.978 µg/mL) |  |  | 146 | 4.17 (≈ 1.46 µg/mL) | 436 | 12.5 (≈ 4.37 µg/mL) |  |  |  |  |  | 
CO[C@H]1/C=C/O[C@@]2(C)Oc3c(C)c(O)c4c(O)c(c(/C=N/N5CCN(C)CC5)c(O)c4c3C2=O)NC(=O)/C(C)=C\C=C\[C@H](C)[C@H](O)[C@@H](C)[C@@H](O)[C@@H](C)[C@H](OC(C)=O)[C@@H]1C [RIFAMPIN] |  |  |  |  |  |  | 0.97 (≈ 0.798 µg/mL) |  |  |  |  |  | 0.91 (≈ 0.749 µg/mL) |  |  |  | 
CC(=O)N[C@@H](Cc1ccccc1)C(=O)NCC(=O)N[C@@H](CCCNC(=N)N)C(=O)N[C@@H](CCCCN)C(=O)N[C@@H](CCCCN)C(=O)N1C[C@@H](NC(=N)N)C[C@H]1C(=O)N[C@@H](CCCNC(=N)N)C(=O)N[C@@H](CCC(N)=O)C(=O)N[C@@H](CCCNC(=N)N)C(=O)N[C@@H](CCCNC(=N)N)C(=O)N[C@@H](CCCNC(=N)N)C(=O)NCCC(N)=O (Ac-FGRKK[Pro(cis-4-guanidino)]RQRRR[βAla]-NH2) | ≥ 80 | 344 | 29.9 (≈ 49.4 µg/mL) | 104 | 8.65 (≈ 14.3 µg/mL) | 4450 | 28.6 (≈ 47.3 µg/mL) | 92 | 13.5 (≈ 22.3 µg/mL) | 47 | 6.53 (≈ 10.8 µg/mL) | 2510 | 33.9 (≈ 56.1 µg/mL) |  |  |  | 

— ChEMBL document CHEMBL4152250, “Antibacterial and anti-TB tat-peptidomimetics with improved efficacy and half-life” (Eur J Med Chem, 2018)
